Source: patent publication US6762185B1, “Compounds useful for treatment of cancer, compositions containing the same, and methods of their use” (Choongwae Pharma Corporation, priority 2002, dated 2004)

What was measured:
SW480 cells [1] = test: Soft agar cell growth and colony formation assay; type: cell-based; details: SW480 cells in soft agar, 8 days
Description: FIG. 7. Cell growth and colony formation assays. SW480 cells were treated with TCF4 compound. The resulting cells are placed in a soft agar plate and incubated at 37° C. in CO2 incubator for 8 days. Number of colonies were counted under microscope. Agar plates were prepared to contain 10% FBS, 2 mM L-glutamine, 0.1 mM non-essential amino acid, 1×pen/strep and 1.6% agarose for bottom layer and DMEM containing 10% FBS, 2 mM L-glutamine, 0.1 mM non-essential amino acid, 1×pen/strep for upper layer. TCF4 compound solution and upper layer solution containing agarose were mixed and SW480 cells were added and solidified. Plates were incubated 37° C. at CO2 incubator for 8 days after solidification at room temperature for 30 min and colonies were counted under microscope (FIG. 7).

[2] = system: TCF4/β-catenin transcriptional pathway; test: TCF4/β-catenin reporter gene assay (pTOPFlash luciferase) in SW480 cells; type: cell-based; details: 24 hours treatment, firefly normalized to renilla
Description: The compound having general formula (I) wherein R1 is 2-naphthyl and R2 is phenyl is used for this experiment (it is referred to as ‘TCF4 compound’ hereinafter). Each transfection was performed in duplicate and repeated at least three times. SW480 cells were transfected transiently with 4.0 μg firefly luciferase reporter plasmid (pTOPFlash) and 0.8 μg renilla luciferase reporter plasmid (pRL-null). Firefly luciferase activity was normalized to renilla luciferase activity.
SW480 cells were maintained in DMEM with 10% fetal bovine serum supplemented with non-essential amino acid and antibiotics. Transient transfections into SW480 cells were carried out by Superfect (Qiagen,301307). For TCF4/β-catenin reporter gene assay, 4 μg of pTOPFlash and 0.8 μg of pRL-null were cotransfected. After 24 hours of transfection, SW480 cells were treated with TCF4 compound at varying concentrations. Firefly luciferase and renilla luciferase activities were measured 24 hours after said TCF4 compound treatment, and the firefly luciferase activity was normalized to the renilla luciferase activity (FIG. 1).

SW480 cells [3] = test: Bioassay for the measurement of IC50 against SW480 cells (TOPFlash/pRL-null luciferase); type: cell-based; details: Homo sapiens, 24 hrs treatment, firefly and renilla luciferase activities, read-out: IC50 against SW480 cell growth
Description: FIG. 8. Measurement of IC50 of TCF4 compound for SW480 cells. Cell growth inhibition on SW480 cells is measured at various concentrations of TCF4 compound in order to obtain the IC50 value. Specifically, the degree of inhibition in firefly and renilla luciferase activities by TCF4 compound was determined. […] Detailed procedures are the same as disclosed in Example 8.
SW480 cells were transfected with the usage of Superfect™ transfect reagent (Qiagen, 301307). Cells were trypsinized briefly 1 day before transfection and plated on 6 well plate (5×10^5 cells/well) so that they were 50-80% confluent on the day of transfection. Four microgram (TOPFlash) and one microgram (pRL-null) of DNAs were diluted in 150 μl of serum-free medium, and 30 μl of Superfect™ transfect reagent was added. The DNA-Superfect mixture was incubated at room temperature for 15 min, after that 1 ml of 10% FBS DMEM was added to this complex for an additional 3 hr of incubation. While complexes were forming, cells were washed with PBS twice without antibiotics. The DNA-Superfect™ transfect reagent complexes were applied to the cells before incubating at 37° C. at 5% CO2 for 3 h. After incubation, recovery medium with 10% FBS was added to bring the final volume to 1.18 ml. After 3 hr incubation, the cells were harvested and reseeded to 96 well plate (3×10^4 cells/well). […]

[4] = system: CBP-mediated transcriptional activation; test: CBP-mediated transcriptional activation, pTOPFlash with CBP and/or β-catenin cotransfection in SW480 cells; type: cell-based; details: SW480 cells cotransfected with pTOPFlash
Description: FIG. 2. […] SW480 cells were cotransfected with 1.1 μg of the pTOPFlash reporter, and 0.8 μg […], in the presence or absence of TCF4 compound and CBP and/or β-catenin, which are present in various concentrations(1.1 to 3.3 μg), is shown to reverse the inhibiting action of TCF4 compound on CBP-mediated transcriptional activation.
In order to determine the inhibitory effect of TCF4 compound on CBP-mediated transcriptional activation, reporter plasmid pTOPFlash (1.1 μg), CBP expression vector (1.1 to 3.3 μg), wild type beta-catenin expression vector (1.1 to 3.3 μg) and pRL-null (0.8 μg) were cotransfected into SW480. Total amount of DNA was adjusted to 6.3 μg. After 24 hours incubation, TCF4 compound was added and cells were washed and luciferase activity was measured. Firefly luciferase activity was normalized to renilla luciferase activity (FIG. 2).

survivin = test: Survivin expression in SW480 cells (RT-PCR and Western blot); type: cell-based, human
Description: FIGS. 5A and 5B. Inhibition of survivin expression by TCF4 compound in […]. FIG. 5A. Surviving mRNA (363 bp) level was assessed by RT-PCR in SW480 cell 24 hours after incubation 25 μM TCF4 compound. β-actin mRNA (564 bp) level is shown as an internal control. FIG. 5B. Survivin protein (MW 16,500) level was assessed by Western blots in SW480 using anti-survivin monoclonal antibody after TCF4 incubation with compound for 48 hrs.
Total RNA was isolated from SW480 cells treated with the TCF4 compound using Rneasy midi kit (Qiagen, Valencia, Calif., 75142). One microgram of RNA was used as a template for RT-PCR. The expression of survivin was evaluated with RT-PCR and Western blot. The primer used to detect fragments of the survivin gene was designed from published human sequences (Cancer Res., 2001, 62, 8664-8667). The sequences used were 5′-[…]-3′ and 5′-[…]-3′, which can give an amplified product of 363 bp. The RT-PCR reaction was processed by Access RT-PCR system (Promega A1260). (FIG. 5) Survivin 6E4 Monoclonal antibody (Cell signaling Technology, 2802) was used for Western blot of TCF4 compound treated SW480 cells. (FIG. 5B).

caspase-3 = test: Caspase-3 activation in SW480 cells (Cbz-DEVD-R110 substrate); type: cell-based; details: SW480 cells treated 24 hours, dose dependent
Description: FIG. 6. TCF4 compound induces caspase-3 activation in a dose-dependent manner. SW480 cells were treated with TCF4 compound for 24 hours. Whole cell protein extracts were prepared and 100 μg aliquots of protein extracts were incubated with Cbz-DEVD-R110 substrate for 2 hours at 37° C. Relative fluorescence unit (RFU) was obtained by subtracting the unit values of the blank control from the experimental measured values. SW480 cells were treated with TCF4 compound for 24 hours, collected and washed with PBS, and lysed in 100 μl ice cold hypotonic lysis buffer which is commercially available (Promega). 100 μg of the cell extracts were incubated in reaction buffer containing Cbz-DEVD-R110 (caspase-3 substrate: Promega) at 37° C. for 2 hours (FIG. 6). It is clear the FIG. 6 that caspase-3 activity was stimulated by the presence of the TCF4 compound, in a dose dependent manner.

CBP = biological target: T1, CBP (Homo sapiens, UniProt Q92793); test: Binding of 14C-TCF4 compound to nuclear extracts of SW480 transfected with CBP or β-catenin; details: 14C-labelled compound, nuclear lysate of transfected SW480, 4° C., 18 hours
T1 construct: expressed in transfected cells; host or cells: SW480
Description: FIG. 3. […] SW480 cells were transiently transfected with β-catenin or CBP expression plasmid. 48 hours after transfection, nuclear protein extracts were collected. 14C-Tcf4 was incubated with nuclear lysate.
Nuclear protein extracts from SW480 transfected with CBP expression vector or wild type β-catenin expression vector were collected using NE-PER Nuclear and Cytoplasmic Extraction Reagents (Pierce) and incubated with ^14C-TCF4 compound at 4° C. for 18 hours. Each samples were washed with Sephadex G-25 columns equilibrated with 5 mL of PBB (20 mM HEPES, pH 7.9, 60 mM NaCl, 6 mM MgCl2, 0.5 mM EDTA, 0.1% NP-40, 20% glycerol, 5 mM 2-ME, 1 mM PMSF) and protein samples eluted by centrifugation were transferred to a scintillation vial containing 2 mL of scintillation fluid. Radio activities were counted using scintillation counter (Beckman).

SW480 cells [5] = test: Combination with 5-FU tested against SW480 cell lines; type: cell-based
Description: It has been known from previous art that 5-FU [Fluorouracil; 5-fluoro-2,4(1H, 3H)-pyrimidinedione] can induce apoptosis in cultured oral cancer cells (D. Tong et al., Oral Oncology 36, 2000 236-241). Further, it is also known that colon cancer has a sensitivity to 5-FU (D. Arango et al., Cancer Research 61, 2001 4910-4915). In the present invention, therefore, the combination of 5-FU having established anti-cancer activity and the compounds of formula (I) of the present invention is prepared and tested against SW480 cell lines. […] Therefore, it is yet another aspect of the present invention to provide a method of treating cancer, which comprises administering to a subject a safe and effective amounts of the compound having formula (I) of claim 1 together with other anti-cancer agent such as 5-Fu.

T1 sequence (Q92793 whole entry): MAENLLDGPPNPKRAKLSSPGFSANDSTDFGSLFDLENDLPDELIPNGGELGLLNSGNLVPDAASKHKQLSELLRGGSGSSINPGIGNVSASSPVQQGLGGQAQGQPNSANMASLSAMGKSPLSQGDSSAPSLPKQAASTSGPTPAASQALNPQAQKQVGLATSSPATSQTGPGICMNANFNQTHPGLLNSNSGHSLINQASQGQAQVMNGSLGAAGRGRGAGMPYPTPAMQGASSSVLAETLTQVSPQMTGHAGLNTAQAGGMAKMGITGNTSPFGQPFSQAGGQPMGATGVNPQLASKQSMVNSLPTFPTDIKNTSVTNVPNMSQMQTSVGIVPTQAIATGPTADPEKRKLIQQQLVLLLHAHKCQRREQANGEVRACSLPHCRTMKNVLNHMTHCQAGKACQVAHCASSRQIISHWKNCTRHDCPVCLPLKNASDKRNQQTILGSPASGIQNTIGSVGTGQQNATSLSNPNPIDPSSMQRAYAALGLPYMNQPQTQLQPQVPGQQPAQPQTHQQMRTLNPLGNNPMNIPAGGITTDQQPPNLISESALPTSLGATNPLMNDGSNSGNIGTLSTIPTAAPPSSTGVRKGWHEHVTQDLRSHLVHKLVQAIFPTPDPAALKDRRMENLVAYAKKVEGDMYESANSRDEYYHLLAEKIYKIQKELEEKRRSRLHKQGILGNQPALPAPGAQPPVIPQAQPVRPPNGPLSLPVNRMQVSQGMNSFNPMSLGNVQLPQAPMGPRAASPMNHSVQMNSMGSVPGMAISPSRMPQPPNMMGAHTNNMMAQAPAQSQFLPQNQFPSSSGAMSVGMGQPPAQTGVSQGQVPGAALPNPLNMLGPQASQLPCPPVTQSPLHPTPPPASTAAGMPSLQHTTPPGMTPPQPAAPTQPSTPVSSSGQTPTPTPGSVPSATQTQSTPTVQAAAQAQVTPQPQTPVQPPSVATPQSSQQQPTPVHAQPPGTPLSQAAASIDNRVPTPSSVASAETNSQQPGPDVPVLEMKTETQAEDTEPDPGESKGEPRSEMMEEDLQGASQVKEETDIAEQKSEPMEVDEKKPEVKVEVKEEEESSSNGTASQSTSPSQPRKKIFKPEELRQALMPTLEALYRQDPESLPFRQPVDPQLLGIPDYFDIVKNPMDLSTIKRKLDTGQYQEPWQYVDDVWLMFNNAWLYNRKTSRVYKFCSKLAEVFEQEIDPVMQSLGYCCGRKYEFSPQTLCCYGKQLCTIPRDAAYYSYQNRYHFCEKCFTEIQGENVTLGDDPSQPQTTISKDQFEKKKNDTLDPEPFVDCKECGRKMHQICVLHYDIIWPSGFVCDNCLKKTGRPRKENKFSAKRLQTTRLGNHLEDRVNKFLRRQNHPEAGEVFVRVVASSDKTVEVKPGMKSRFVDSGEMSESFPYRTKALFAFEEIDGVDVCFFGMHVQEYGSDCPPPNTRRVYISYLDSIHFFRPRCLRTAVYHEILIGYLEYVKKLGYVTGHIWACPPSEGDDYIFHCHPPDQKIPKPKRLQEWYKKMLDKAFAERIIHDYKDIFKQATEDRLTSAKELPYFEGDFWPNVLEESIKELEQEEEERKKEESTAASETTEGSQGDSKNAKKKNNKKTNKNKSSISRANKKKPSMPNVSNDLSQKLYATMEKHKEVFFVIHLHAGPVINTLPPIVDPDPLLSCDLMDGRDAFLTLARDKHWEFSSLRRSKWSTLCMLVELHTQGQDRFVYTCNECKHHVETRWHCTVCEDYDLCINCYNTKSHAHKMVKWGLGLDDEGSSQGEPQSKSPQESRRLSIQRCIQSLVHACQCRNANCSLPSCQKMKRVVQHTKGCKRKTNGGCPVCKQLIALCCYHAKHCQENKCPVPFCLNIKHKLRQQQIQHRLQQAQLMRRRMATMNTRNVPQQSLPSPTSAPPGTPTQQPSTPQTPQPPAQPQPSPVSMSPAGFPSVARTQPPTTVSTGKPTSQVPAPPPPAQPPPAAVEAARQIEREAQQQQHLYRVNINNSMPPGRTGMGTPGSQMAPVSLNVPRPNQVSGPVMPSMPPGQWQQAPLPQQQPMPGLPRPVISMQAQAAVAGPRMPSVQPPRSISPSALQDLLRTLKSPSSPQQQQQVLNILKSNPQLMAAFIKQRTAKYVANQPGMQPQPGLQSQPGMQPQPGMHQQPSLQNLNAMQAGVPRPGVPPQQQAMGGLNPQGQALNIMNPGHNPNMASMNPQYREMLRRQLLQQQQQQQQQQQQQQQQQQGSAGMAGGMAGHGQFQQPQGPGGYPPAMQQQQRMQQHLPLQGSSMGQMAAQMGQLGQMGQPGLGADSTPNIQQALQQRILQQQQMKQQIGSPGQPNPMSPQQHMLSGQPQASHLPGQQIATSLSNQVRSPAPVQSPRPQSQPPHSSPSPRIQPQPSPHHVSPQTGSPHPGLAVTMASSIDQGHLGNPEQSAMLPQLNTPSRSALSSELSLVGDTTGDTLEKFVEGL

## O=C1[C@H](Cc2ccc(O)cc2)N2C(=O)CCN(C(=O)NCc3ccccc3)[C@H]2CN1Cc1cccc2ccccc12 [TCF4 compound, 6-(4-Hydroxy-benzyl)-8-naphthalen-1-ylmethyl-4-oxo-hexahydro-pyrazino[1,2-α]pyrimidine-1-carboxylic Acid Benzylamide]
SW480 cells [1]
  cell growth and colony formation: correlation between the dose of TCF4 compound and the inhibition of cell growth
[2]
  transcription of the TCF4 responsive reporter gene luciferase: inhibits the transcription of the TCF4 responsive reporter gene luciferase in a dose-dependent manner
SW480 cells [3]
  IC50: ~8.07 µM
[4]
  CBP-mediated transcriptional activation: inhibits CBP-mediated transcriptional activation
survivin; RT-PCR, 25 μM, 24 hours
  survivin mRNA expression level: Inhibits
survivin; Western blot, 48 hrs
  survivin protein expression level: Inhibits
caspase-3
  caspase-3 activity: stimulated
CBP
  binding to CBP: Specific binding
SW480 cells [5]
  inhibition of cancer cell growth in combination with 5-FU: remarkable effect for inhibiting cancer cell growth
